Assay results taken from publication PMC7942396, “Drug Repurposing Screen for Compounds Inhibiting the Cytopathic Effect of SARS-CoV-2” (Frontiers in Pharmacology, 2021).
pEC50: −log10 of the molar value. Where a name gives a salt, the structure may show the parent alone. Read-outs that look alike come from different tables or passages of the source.

Tests used:
[1] = tested on: SARS-CoV-2 (USA_WA1/2020); assay: microbe, parasite or virus in culture; type: cell-based; conditions: for pEC50: read-out: CPE EC50
[2] = tested on: Vero E6 cells; conditions: Vero E6 cells without virus; for CC50: read-out: Cytotox CC50
[3] = SARS-CoV-2 CPE assay, Vero E6 cells, confirmed anti-SARS-CoV-2 compounds
[4] = SARS-CoV-2 CPE assay, Vero E6 cells, efficacy
[5] = […], DMSO 0%, no-virus control 100%, hit confirmation
[6] = SARS-CoV-2 CPE assay, Vero E6 cells

Structure (SMILES) | pEC50 [1, 3] | CPE % Efficacy [1, 4] | % Cytotox ([2]; cytotoxicity counter-assay) | CC50 ([2]; cytotoxicity counter-assay) | CPE % Efficacy [1, 5] | pEC50 [1] | % Cytotox ([2]; 72 h) | CPE % Efficacy [1, 6] | pEC50 [1, 6]
COc1cc2nc(N3CCCCC3)nc(NC3CCN(C)CC3)c2cc1OC [NCGC00185859] | 5.45 | 94.8% | 69.3% | 10 µM | – | – | – | – | –
C(=N\Nc1nc(Nc2ccccc2)nc(N2CCOCC2)n1)/c1c[nH]c2ccccc12 [MLS000543798] | 6.96 | 87.4% | 33.6% | 0.45 µM | – | – | – | – | –
Cl.Oc1ccc2c3c1O[C@H]1c4[nH]c5ccc(N=C=S)cc5c4C[C@@]4(O)[C@@H](C2)N(CC2CC2)CC[C@]314 [Naltrindole isothiocyanate hydrochloride, reference compound] | – | – | – | – | 114.7% | 5.00 | <30% | – | –
CC(C)c1cnn2c(NCc3ccccc3)cc(NCCCCCCN)nc12 [BS-181] | 5.00 | 83.4% | 32.0% | – | – | – | – | – | –
O=C(c1ccc(Nc2nccc(-c3cc4ccccc4s3)n2)cc1)N1CCC(N2CCCC2)CC1 [IKK-16] | 5.45 | 110.2% | 107.2% | 10 µM | – | – | – | – | –
COc1ccc(CCNCc2ccc(OC)c3ccccc23)cc1 [SBI-0087702] | 4.95 | 106.7% | 24.6% | 7.08 µM | – | – | – | – | –
CCCCCCCCC(=O)N[C@H](CN1CCCC1)[C@H](O)c1ccc2c(c1)OCCO2 [Genz-123346 (free base), reference compound] | – | – | – | – | 99.4% | 5.00 | <30% | – | –
COc1ccc2c(c1)c(CCN(C)C)cn2S(=O)(=O)c1ccccc1.O=C(O)C(=O)O [MS 245 oxalate] | – | – | 20.5% | 12.6 µM | – | – | – | 76.1% | 4.90
COc1cc2c(Nc3ccc(NC(=O)c4ccccc4)cc3)ncnc2cc1OCCCN1CCOCC1 [ZM-447439] | – | – | 38.3% | 12.6 µM | – | – | – | 49.6% | 4.85
Cc1cc(C)c(CNC(=O)c2cc(-c3ccc(N4CCN(C)CC4)nc3)cc3c2c(C)cn3C(C)C)c(=O)[nH]1 [GSK-503?EZH2 inhibitor] | – | – | 0.0% | – | – | – | – | 111.9% | 4.90
O=S(=O)(c1cccc2c(Cl)cccc12)N1CCCNCC1 [ML-9] | – | – | 23.3% | 11.2 µM | – | – | – | 91.0% | 4.90
C=C1C(=O)O[C@H]2C3=C(C)CCC[C@]3(C)C(=O)C[C@@H]12 [NCGC00168931] | 5.65 | 40.6% | 69.6% | 10 µM | – | – | – | – | –
NC(=O)c1ccccc1Nc1ccnc(Nc2cccc(O)c2)n1 [DB-07268] | 5.00 | 52.8% | 40.9% | 1 µM | – | – | – | – | –
Cc1c(NC(=O)OC[C@@H]2COCCN2)cn2ncnc(Nc3ccc4c(cnn4Cc4cccc(F)c4)c3)c12 [AC480 (BMS-599626)] | 4.95 | 62.3% | 67.2% | 12.6 µM | – | – | – | – | –
O=C1NC(=O)c2cc(Nc3ccccc3)c(Nc3ccccc3)cc21 [DAPH] | 5.40 | 53.9% | 79.5% | 11.2 µM | – | – | – | – | –
COc1ccccc1N1CCN(CC[C@@](C)(C(=O)C2CCCCC2)c2ccccc2)CC1 [(R)-(-)-LY 426965 dihydrochloride, reference compound] | – | – | – | – | 110.7% | 5.00 | <30% | – | –
Br.O=C(CN1C2=NCCN2c2ccccc21)c1ccc(-c2ccccc2)cc1 [CCT 031374 hydrobromide] | 5.10 | 63.4% | 33.8% | 12.6 µM | – | – | – | – | –
Cn1cc(-c2ccncc2)c(-c2ccc(OCc3ccc4ccccc4n3)cc2)n1 [MP-10] | 5.35 | 31.1% | 85.1% | – | – | – | – | – | –
CC(C)(C)c1ccc(C(=O)Nc2cc(Cl)c(Br)cc2C(=O)O)cc1 [NCGC00386831] | 4.95 | 32.0% | 78.8% | 10 µM | – | – | – | – | –
CN(C)S(=O)(=O)c1ccc(NC(=S)N2CCC(C(O)(c3ccccc3)c3ccccc3)CC2)cc1 [CYM 9484] | 4.95 | 30.8% | 13.8% | 19.9 µM | – | – | – | – | –
CCOc1ccc(-c2nc(-c3cccc4c3CCC4NCCO)no2)cc1OCC.Cl (centres unmarked) [CYM 5442 hydrochloride] | 4.95 | 134.3% | 0.0% | – | – | – | – | – | –
